Results as given in ChEMBL document CHEMBL4699563, “Synthesis and evaluation of etoposide and podophyllotoxin analogs against topoisomerase IIα and HCT-116 cells” (2020).
Activity calls are given as the source filed them. The calls are words filed in the database; no cut-off is given here.

Columns and labels:
HCT-116 [1] = assay: Cytotoxicity against human HCT-116 cells assessed as reduction in cell viability after 72 hrs by Alamar blue assay; assay type: functional; details: read-out: LD50 (the source's name)
A549 [2] = assay: Antiproliferative activity against human A549 cells assessed as inhibition of cell proliferation after 48 hrs by MTT assay; assay type: functional; details: read-out: LD50 (the source's name)
[3] = target: DNA topoisomerase 2-alpha (Homo sapiens) (UniProt P11388); assay: Inhibition of wild type human topoisomerase-2alpha expressed in Saccharomyces cerevisiae JEL1deltatop1 assessed as inhibition of supercoiled DNA relaxation at 100 to 200 uM using negatively supercoiled pBRDNA as substrate incubated for 15 mins in presence of ATP by gel electrophoresis; details: dose microM 100-200, time 15.0 min
DNA topoisomerase 2-alpha (Homo sapiens), sequence (P11388 whole entry): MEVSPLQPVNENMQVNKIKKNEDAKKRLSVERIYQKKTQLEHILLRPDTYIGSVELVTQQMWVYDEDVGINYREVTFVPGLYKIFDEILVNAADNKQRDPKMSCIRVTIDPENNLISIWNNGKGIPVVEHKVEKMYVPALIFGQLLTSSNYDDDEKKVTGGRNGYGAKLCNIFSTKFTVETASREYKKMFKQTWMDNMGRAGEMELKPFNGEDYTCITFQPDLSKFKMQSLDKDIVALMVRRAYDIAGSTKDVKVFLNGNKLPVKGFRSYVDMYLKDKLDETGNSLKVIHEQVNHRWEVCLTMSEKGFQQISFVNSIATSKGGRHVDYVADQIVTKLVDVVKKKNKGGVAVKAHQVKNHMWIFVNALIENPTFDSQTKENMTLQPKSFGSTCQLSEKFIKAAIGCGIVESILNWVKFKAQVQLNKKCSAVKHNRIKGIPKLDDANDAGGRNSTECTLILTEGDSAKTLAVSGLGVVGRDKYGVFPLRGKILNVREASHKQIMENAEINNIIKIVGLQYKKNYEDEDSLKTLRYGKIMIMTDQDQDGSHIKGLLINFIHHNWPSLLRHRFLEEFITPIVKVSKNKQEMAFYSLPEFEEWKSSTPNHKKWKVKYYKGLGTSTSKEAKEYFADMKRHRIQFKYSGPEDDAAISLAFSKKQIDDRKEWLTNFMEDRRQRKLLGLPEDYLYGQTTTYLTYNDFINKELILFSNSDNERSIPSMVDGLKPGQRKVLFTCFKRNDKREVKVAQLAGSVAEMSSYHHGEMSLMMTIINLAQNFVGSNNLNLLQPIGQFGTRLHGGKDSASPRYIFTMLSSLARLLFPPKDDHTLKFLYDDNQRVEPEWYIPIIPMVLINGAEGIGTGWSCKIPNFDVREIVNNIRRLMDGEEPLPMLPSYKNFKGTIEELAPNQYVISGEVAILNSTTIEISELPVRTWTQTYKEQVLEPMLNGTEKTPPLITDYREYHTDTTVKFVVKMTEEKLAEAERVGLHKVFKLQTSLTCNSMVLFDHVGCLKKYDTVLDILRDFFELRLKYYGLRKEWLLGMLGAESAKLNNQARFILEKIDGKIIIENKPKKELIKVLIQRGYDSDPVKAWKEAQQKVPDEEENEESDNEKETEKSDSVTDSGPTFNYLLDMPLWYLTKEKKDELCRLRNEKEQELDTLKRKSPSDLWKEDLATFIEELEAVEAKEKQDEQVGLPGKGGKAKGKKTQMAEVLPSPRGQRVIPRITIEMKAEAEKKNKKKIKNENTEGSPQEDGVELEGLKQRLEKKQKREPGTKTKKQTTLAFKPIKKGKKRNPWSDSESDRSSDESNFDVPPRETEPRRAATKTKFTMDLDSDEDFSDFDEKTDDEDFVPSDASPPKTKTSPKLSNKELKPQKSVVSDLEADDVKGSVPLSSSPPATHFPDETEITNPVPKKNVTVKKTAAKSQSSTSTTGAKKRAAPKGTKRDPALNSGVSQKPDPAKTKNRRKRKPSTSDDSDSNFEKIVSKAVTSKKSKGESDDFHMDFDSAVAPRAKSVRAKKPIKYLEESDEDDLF

[4] = target: DNA topoisomerase 2-alpha (Homo sapiens) (UniProt P11388); assay: Inhibition of wild type human topoisomerase-2alpha expressed in Saccharomyces cerevisiae JEL1deltatop1 assessed as induction of supercoiled DNA cleavage at 100 to 200 uM using negatively supercoiled pBRDNA as substrate incubated for 30 mins by gel electrophoresis; details: dose microM 100-200, time 30.0 min
HCT-116 [5] = assay: Cell cycle arrest in human HCT-116 cells assessed as decrease in cell population at S phase after 48 hrs by propidium iodide staining based flow cytometry analysis; assay type: functional
[6] = target: DNA topoisomerase 2-alpha (Homo sapiens) (UniProt P11388); assay: Inhibition of wild type human topoisomerase-2alpha expressed in Saccharomyces cerevisiae JEL1deltatop1 assessed as induction of supercoiled DNA cleavage using negatively supercoiled pBRDNA as substrate incubated for 30 mins by gel electrophoresis; details: dose microM 100-200, time 30.0 min
HCT-116 [7] = assay: Cell cycle arrest in human HCT-116 cells assessed as accumulation at sub-G1 phase after 48 hrs by propidium iodide staining based flow cytometry analysis; assay type: functional
[8] = target: DNA topoisomerase 2-alpha (Homo sapiens) (UniProt P11388); assay: Inhibition of wild type human topoisomerase-2alpha expressed in Saccharomyces cerevisiae JEL1deltatop1 assessed as induction of supercoiled DNA cleavage at 200 uM using negatively supercoiled pBRDNA as substrate incubated for 30 mins by gel electrophoresis
A549 [9] = assay: Cytotoxicity against human A549 cells assessed as reduction in cell viability after 72 hrs by Alamar blue assay; assay type: functional; details: read-out: LD50 (the source's name)

Question: How did the CC50 (HCT-116 [1]) turn out when `COc1cc([C@@H]2c3cc4c(cc3[C@@H](O[C@@H]3O[C@@H]5CO[C@@H](C)O[C@H]5[C@H](O)[C@H]3O)[C@H]3COC(=O)[C@H]23)OCO4)cc(OC)c1O` [ETOPOSIDE] was run?
Answer: 1.6 µM

Question: And the CC50 (A549 [2])?
Answer: 11.8 µM

Question: With `COc1cc([C@@H]2c3cc4c(cc3[C@H](O)[C@H]3COC(=O)[C@H]23)OCO4)c(Br)c(OC)c1OC` as the compound, how does the inhibition [3] read?
Answer: inactive

Question: `COc1cc([C@@H]2c3cc4c(cc3[C@H](O)[C@H]3COC(=O)[C@H]23)OCO4)cc(OC)c1OC` was tested. Which inhibition [3] did it give?
Answer: inactive

Question: What does the source list for `COc1cc([C@@H]2c3cc4c(cc3[C@@H](O[C@@H]3O[C@@H]5CO[C@@H](C)O[C@H]5[C@H](O)[C@H]3O)[C@H]3COC(=O)[C@H]23)OCO4)c(Cl)c(OC)c1O`?
Answer: CC50 (HCT-116 [1]): 120 µM; Activity [4]: Active; inhibition [3]: Active; Activity (HCT-116 [5]): Active; Activity [6]: Active; Activity (HCT-116 [7]): Active

Question: How did the inhibition [3] turn out when `COc1cc([C@@H]2c3cc4c(cc3[C@H](O)[C@H]3COC(=O)[C@H]23)OCO4)c(Cl)c(OC)c1OC` was run?
Answer: inactive

Question: `COc1cc([C@@H]2c3cc4c(cc3[C@@H](O)[C@H]3COC(=O)[C@H]23)OCO4)c(Cl)c(OC)c1O` was tested. Which CC50 (HCT-116 [1]) did it give?
Answer: 33 µM

Question: What about the Activity [8] of the same compound?
Answer: Active

Question: And the inhibition [3]?
Answer: Active

Question: What about the CC50 (A549 [9]) of the same compound?
Answer: 35 µM

Question: Which CC50 (HCT-116 [1]) does the source give for `COc1c(Cl)c([C@@H]2c3cc4c(cc3[C@H](O)[C@H]3COC(=O)[C@H]23)OCO4)c(Cl)c(OC)c1OC` here?
Answer: 20 µM

Question: And the Activity [4]?
Answer: Active

Question: And the inhibition [3]?
Answer: Active

Question: What about the Activity (HCT-116 [5]) of the same compound?
Answer: Active

Question: What about the CC50 (A549 [9]) of the same compound?
Answer: 17 µM

Question: And the Activity (HCT-116 [7])?
Answer: Active
